We go through 60 compounds from the METLIN SMRT retention time set (Domingo-Almenara et al. 2019).

SMILES strings stand for the structures.

This data set in a line: gradient 5% acetonitrile 3 min, to 50% in 2 min, to 85% in 15 min, held 3 min, 100 µL/min. As to conditions: column: Zorbax Extend-C18 2.1 x 50 mm; eluents: water / acetonitrile, 0.1% formic acid. Summed up: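 In both positive and negative ionization mode, a quadrupole time-of-flight mass spectrometer coupled to HPLC analyzed pure standards run in mixtures of ~100 molecules. The Zorbax Extend-C18 column (2.1 × 50 mm, 1.8 μm) was operated at 100 μL/min with water and acetonitrile, each containing 0.1% formic acid. The dead volume was 40 μL and the dwell volume 900 μL. Retention time came from adduct peaks that were computationally picked and individually inspected by hand.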
Turning to `O=C(c1nc(-c2ccnc(N3CCCCC3)c2)no1)N1CCCCC1`, the RP-LC retention time turned out to be 764 s.
The result for `CC(C)c1cc(C(=O)Nc2ccc(F)c(Cl)c2)nc2ccnn12` reads 1210 s.
The result for `O=C(C1CCN(c2cc(N3CCCCC3)ncn2)CC1)N1CCCCC1` reads 652 s.
`Cc1ccccc1CNC(=O)C1(C)CCCN(C(=O)NCC(C)C)C1` (stereo not given) had an RP-LC retention time of 820 s.
Under `COCCN1C(=O)c2ccccc2C(C(=O)NCCc2c[nH]c3ccccc23)C12CCCC2` (stereo not given) stands 845 s; under `Cn1nc(C(C)(C)C)cc1C(=O)N[C@@H](Cc1cccc(Cl)c1)C(=O)NCC#N`, 946 s; under `COc1ccc(-c2nnc(-c3ccc(C)c(S(=O)(=O)N4CCSCC4)c3)o2)cc1OC`, 970 s.
Under `CCOC(=O)C1CCN(c2cc3c(cc2NC(=O)CC)n(C)c(=O)c(=O)n3C)CC1` stands 724 s; under `CC1(C(=O)NCc2ccc(F)cc2)CCCN(C(=O)Nc2ccc(Br)cc2F)C1` (stereo not given), 1030 s.
The result for `CC(C)c1nnc(-c2ccc(S(=O)(=O)N3CCCC3)o2)o1` reads 815 s; that for `COCCCNC(=O)c1ccc(-c2ccc(Oc3ccccc3)nn2)cc1`, 757 s.
`COc1cc2c(cc1OC)C(C(=O)NCCN1CCOCC1)C(c1cccs1)N(C)C2=O` (stereo not given): the RP-LC retention time came out at 604 s.
The result for `CCCCN(CC)S(=O)(=O)c1ccc(C(=O)Nc2nc3c(s2)Cc2ccccc2-3)cc1` reads 1230 s; that for `Cc1cccc(Cn2nc3ccc(S(=O)(=O)N4CCC(C)CC4)cn3c2=O)c1`, 1040 s; that for `Cc1noc(COC2CCCN(C(=O)c3ccc(Cl)s3)C2)n1` (stereo not given), 801 s.
As for `COc1ccc(NC(=O)N2CC(C)Oc3ccc(C)cc32)cc1OC` (stereo not given), the RP-LC retention time was 921 s.
For the compound `Cc1cc(NS(=O)(=O)c2ccc(F)cc2C)n(C2CCS(=O)(=O)C2)n1` (stereo not given), the RP-LC retention time is 753 s.
`COc1ccc(CC(=O)N2CCN(c3cc(C)n4c(C)nnc4n3)CC2)cc1Cl` displayed an RP-LC retention time of 614 s.
Consider `Cc1ccc(-c2nc3sc(N4CCCCC4)nn3c2NC(=O)C2CC2)cc1`, for which the RP-LC retention time came out at 885 s.
Under `COc1nn(C)cc1C(=O)Nc1nnc(-c2sc(C)nc2C)o1` stands 598 s; under `O=C(Nc1ccc2c(c1)OCO2)c1cn(-c2cc(N3CCCCC3)ncn2)cn1`, 936 s; under `O=C(c1cccn1-c1nnc(N2CCCC2)s1)N1CCN(c2ccccn2)CC1`, 598 s.
With `O=C(Nc1cnc(N2CCCCCC2)nc1)c1cc(F)cc(F)c1`, the RP-LC retention time amounted to 1020 s.
The result for `CCC1CN(C(=O)N2CCC(C(=O)NCCCN3CCCC3)CC2)c2ccccc2O1` (stereo not given) reads 627 s; that for `O=C(C1CCN(c2cnc3nccnc3c2)CC1)N1CCN(c2ccccc2F)CC1`, 747 s; that for `COc1ccc(CCNC(=O)CCc2nnc3c4cc(-c5ccc(C)c(C)c5)nn4ccn23)cc1OC`, 802 s.
Under `CCc1nc(-c2csc(S(=O)(=O)N3CCC(C(=O)Nc4ccc(C)cc4)CC3)c2)no1` stands 1020 s; under `CCn1c(=O)c(C(=O)NCc2ccccc2Br)nc2cccnc21`, 871 s; under `CC(C)CCNC(=O)C1(C)CN(S(=O)(=O)c2ccccc2)CC(=O)N1Cc1ccc(Cl)cc1` (stereo not given), 1040 s.
On to `CC(C)N1CCN(C(=O)c2sc3ncccc3c2-n2cccc2)CC1`, for which the RP-LC retention time worked out at 597 s.
As to `O=C(CCCc1ccccc1)NC1CCN(c2nnc3ccc(Cl)cn23)CC1`, the RP-LC retention time stood at 639 s.
The result for `CCC(C)NC(=O)C1CCN(Cc2cc3ccccc3n2Cc2cccc(Cl)c2)CC1` (stereo not given) reads 796 s; that for `CCn1c(=O)c2ccccc2n(Cc2nc(-c3cc(OC)c(OC)c(OC)c3)no2)c1=O`, 936 s.
In the case of `CCc1ccc(CNC(=O)Cc2c(C(=O)O)c(C)cn2CC)cc1`, the RP-LC retention time came out at 842 s.
Under `COCCn1c(Cc2cccn2C)nnc1SCC(=O)N1CCCc2ccccc21` stands 809 s.
For the compound `CCN(C(=O)c1ccco1)c1nc(-c2ccccc2)cs1`, the RP-LC retention time was 1180 s.
In the case of `Cn1nc(N2CCC(NC(=O)c3ccc[nH]c3=O)C2)ccc1=O` (stereo not given), the RP-LC retention time turned out to be 575 s.
In the case of `Cc1nn(Cc2ccc(C(=O)NCC3CC3)cc2)c(C)c1S(=O)(=O)N1CCCCC1`, the RP-LC retention time was 859 s.
Under `Cc1c(C(=O)N2CCOCC2)cc(-c2ccccc2)n1C` stands 616 s.
Under `CCOc1ccc(S(=O)(=O)N2CCC3(CC2)CN(C)CC3c2nnc(CC)o2)cc1` (stereo not given) stands 638 s; under `CCN1CCN(CCNC(=O)c2ccc3c(c2)NC(=O)C2CCCCN32)CC1` (stereo not given), 574 s; under `Cc1sc2ncn(CC(=O)NCCCC(=O)N3CCCC(C)C3)c(=O)c2c1C` (stereo not given), 721 s.
Turning to `CCCCC(=O)N1CCN(C(=O)c2cc3cc(Br)ccc3[nH]2)CC1`, the RP-LC retention time was 873 s.
Under `COc1ccc(-c2ccc(=O)n(CCNC(=O)c3ccno3)n2)cc1` stands 628 s.
The result for `CCc1cc(=O)n(CC(=O)NCc2ccccc2)c(N2CCOCC2)n1` reads 647 s.
Under `O=S(=O)(c1cccc2nsnc12)N1CCc2nc(-c3ccc(F)cc3)ncc2C1` stands 1040 s.
For `CCn1ccc2c(cc(C(=O)Nc3ccc(Cl)cc3C)n2C)c1=O`, the RP-LC retention time worked out at 1320 s.
In the case of `CCc1cccc(NC(=O)N2CCC(c3cc(N)on3)CC2)c1`, the RP-LC retention time worked out at 751 s.
Turning to `Cn1c(=O)n([C@H]2CCN(S(=O)(=O)c3ccc(F)cc3)C2)c2ncccc21`, the RP-LC retention time amounted to 805 s.
The result for `Cc1ccc(CN2CCn3c(nnc3[C@@H]3C[C@@H](O)CN3Cc3cccnc3)C2)s1` reads 566 s.
For `CC(C)C(=O)Nc1ccc(N2CCN(c3ccccc3)C2=O)nc1`, the RP-LC retention time turned out to be 832 s.
For the compound `CCn1ccc2cc(S(=O)(=O)N3CCCC(C(=O)NCCCN(C)Cc4ccccc4)C3)ccc21` (stereo not given), the RP-LC retention time was determined as 715 s.
Under `CC(=O)N1CCc2ccccc2C1C(=O)NCc1ccc(C)c(C)c1` (stereo not given) stands 833 s.
Under `Cc1cc(C(=O)N2CCC(Oc3nc4c(Cl)cccc4s3)CC2)no1` stands 956 s.
Take `O=C(c1cccnc1)N1CCC(n2nc(-c3ccsc3)ccc2=O)CC1`: the RP-LC retention time was found to be 650 s.
Under `Cc1cccc(NC(=O)CS(=O)(=O)Cc2ccccc2)n1` stands 707 s; under `COc1ccc(NC(=O)NCCc2cn(C)c3ncccc23)cc1`, 633 s; under `CC(C)n1cnc(S(=O)(=O)N2CCC(C(=O)Nc3cccc(-c4ccno4)c3)CC2)c1`, 753 s.
The result for `O=C(Nc1ccc(F)cc1)c1nnc(CSCC(=O)N2CCN(c3ccccn3)CC2)s1` reads 657 s; that for `CC(C)n1cnc2cc(CNC(=O)c3ccc4c(c3)OCO4)ccc21`, 624 s.
